According to patent publication US12239621B2, “Prevention of kidney injury induced by hemolytic reaction” (Niigata University, priority 2021, dated 2025):

Tests used:
hemolysis model mice [1] = settings: cilastatin 400 mg/kg i.p. at 0, 3 and 6 h after phenylhydrazine, vs normal saline control group (FIG. 1)
Experimental: Phenylhydrazine (97% phenylhydrazine, Sigma-Aldrich Inc.) was dissolved in PBS in a concentration of 5 mg/ml to prepare a PBS solution, and the solution was intraperitoneally given to C57BL/6 mice (male, aged 10-12 weeks) so that the dose of phenylhydrazine was 1 mg/10 g, thereby constructing homolysis models.
To the hemolysis models, a) 400 mg/kg (diluted in 100 μL of normal saline) of cilastatin (Sigma-Aldrich Inc.), or b) 100 μL of normal saline was intraperitoneally administered at the time of phenylhydrazine dosing, 3 hours after the dosing, and 6 hours after the dosing. For each a) and b), 6 mice were used.
Then, for each individual in a) cilastatin-treated group and b) normal saline-treated group (control group), urine was pooled using a metabolic cage for 24 hours after phenylhydrazine dosing, and the obtained urine samples were collected.
The urine and serum were stored at −80° C. until analysis and measured for urinary KIM-1 and blood urea nitrogen. The measurements were conducted by Oriental Yeast Co., Ltd.

mice (C57BL/6) = settings: cilastatin sodium 400 mg/kg i.p.
Experimental: Cilastatin was administered to mice and changes in concentrations of each ligand in urine were observed.
Five mice (male, aged 12 weeks C57BL/6) were intraperitoneally administered with 400 mg/kg (diluted in 100 μL, of normal saline, cilastatin-treated group) of cilastatin sodium (Sigma-Aldrich Japan K.K., C5743), and then put in a metabolic cage for 3 hours to collect urine, and the urines of 5 mice were combined. Additionally, 100 μL, of normal saline was administered to another group of 5 mice (control group), and the same experiment as above was conducted.
Proteins were isolated from the obtained urine samples by electrophoresis (SDS-polyacrylamide gel), reductively alkylated (using dithiothreitol and iodoacetamide), digested with trypsin, and the obtained peptides were extracted to obtain a solid.
To the obtained solid, 15 μL, of 0.3% formic acid (FA) was added, shaken for 5 minutes, sonicated for 1 minute, and shaken again for 5 minutes. The resultant mixture was spun down, applied to a membrane filter having a pore diameter of 0.45 μm (ULtra free-MC, HV, 0.45 μm, Millipore), centrifuged at 10,000 rpm for 5 minutes, and the sample passed through the filter was subjected to LCMS analysis.
The analysis method described in Ohara et al., 2018, PLoS One, vol. 13, 1, e0204160 was referred to. The analysis method is shown below.
AnaLyst® TF1.6 (AB SCIEX) was used as an LCMS/MS data acquisition and analysis software, and the obtained raw data were converted to a peak list file (mgf file format), whereby MS/MS Ion Search (MIS search) was conducted using Matrix Science Mascot daemon, Mascot server 2.2.1. The sequence data base used was Uniprot, Swiss-Prot. Significance threshold was set to 0.05 (false discovery rate of less than 5%), and the proteins having 2 or more peptides exceeding the identification standard were listed as identified proteins.
Raw data were acquired 2 times per sample at LCMS to cover the issue of analysis reproducibility at LCMS, and the peak list files obtained from the 2 runs were combined and analyzed using Mascot (Ohara et al., 2018, PLoS One, vol. 13, 1, e0204160).
To the proteins identified in common in 2 groups when compared, the spectral count method was used, which is a label-free comparative, semiquantitative analysis method utilizing a principle that a large number of peptide fragments will be identified in those expressed at high levels, resulting in the increase in the number of MS/MS. In other words, the proteins identified in both of the cilastatin-treated group and control group were calculated for an SpC/L ratio (spectral abundance factor: SAF) of the cilastatin-treated group/control group, and the proteins having an SpC/L ratio of 2.0 or more were listed as the proteins abundant in urine of the cilastatin-treated group.

hemolysis model mice [2] = settings: cilastatin 400 mg/kg i.p. at 0, 3 and 6 h after phenylhydrazine, kidneys at 24 h, immunostaining (FIG. 5)
Experimental: Twenty-four hours after phenylhydrazine dosing, a portion containing a renal pedicle was sliced to 3 mm thickness from the right kidney and fixed with 4% paraformaldehyde phosphate buffer.
(§1) In line with Test Example 1, 1 mg/10 g of phenylhydrazine was given to C57BL/6 (male, aged 10-12 weeks), thereby constructing hemolysis model mice.
(§2) To the hemolysis models, a) 400 mg/kg (diluted in 100 μL, of normal saline) of cilastatin (Sigma-Aldrich Inc.), or b) 100 μL, of normal saline was intraperitoneally administered at the time of phenylhydrazine dosing, 3 hours after the dosing, and 6 hours after the dosing.

[3] = target: binding between megalin and Hx (Rattus norvegicus, UniProt P98158); settings: QCM, 1 mg cilastatin injected into 200 μL buffer in advance, rat Hx (FIG. 2-1)
Text: (§3) Binding specificity between megalin and each ligand (hemoglobin, α1M, Hx), and the possible binding inhibition by cilastatin were verified using the quartz crystal microbalance (QCM) method by reference to the method described in PTL 2.
(§4) For the ligands to be verified, hemoglobin (LifeSpan Biosciences Inc., Rat Hemoglobin Native Protein, LS-G11201) and Hx (Sino Biological Inc., Rat Hemopexin/HPX protein (His Tag 81025-R08H)) were used. […]
(§5) After each of the ligand- or BSA-immobilized quartz crystal sensor was mounted in the measurement instrument AFFINIX® Q8 (Initium Inc.) and the frequency was confirmed to be stable, 8 μL of a 0.1 mg/mL solution of megalin purified from Sprague-Dawley (SD) rat kidneys according to the method of Orlando et al. was injected and frequency was measured with time.
(§6) More specifically, the megalin solution was reacted to each of the ligand-immobilized quartz crystal sensors placed in a chamber with 200 μL of buffer, and frequency was measured.
(§7) Additionally, 1 mg of cilastatin was injected into buffer in advance, each of the ligand-immobilized quartz crystal sensors was mounted in the measurement instrument, and after the frequency was confirmed to be stable, the megalin solution was injected and frequency was measured with time, whereby the antagonistic activity of cilastatin against the binding of each ligand to megalin was analyzed. […]

[4] = target: binding between megalin and hemoglobin (Rattus norvegicus, UniProt P98158); settings: QCM, 1 mg cilastatin injected into 200 μL buffer in advance, rat hemoglobin (FIG. 2-1)
Text: as §3, §4, §5, §6, §7

hemolysis model mice [5] = settings: cilastatin 400 mg/kg i.p. at 0, 3 and 6 h after phenylhydrazine, kidneys at 24 h, immunostaining (FIG. 7)
Experimental: as §1, §2
In the present test example, thinly sliced fixed samples obtained from the remaining right kidney of the same animal were immunostained (500-fold diluted) using an anti-α1M antibody (Gene Tex: GTX101068).

[6] = target: binding between α1M and megalin (Rattus norvegicus, UniProt P98158); settings: QCM, 1 mg/200 μL cilastatin injected into buffer in advance, rat α1M (FIG. 2-2)
Text: as §3

[7] = mice, 3 h urine pooled from 5 mice, LCMS

binding between α1M and megalin, sequence (P98158 26-4660): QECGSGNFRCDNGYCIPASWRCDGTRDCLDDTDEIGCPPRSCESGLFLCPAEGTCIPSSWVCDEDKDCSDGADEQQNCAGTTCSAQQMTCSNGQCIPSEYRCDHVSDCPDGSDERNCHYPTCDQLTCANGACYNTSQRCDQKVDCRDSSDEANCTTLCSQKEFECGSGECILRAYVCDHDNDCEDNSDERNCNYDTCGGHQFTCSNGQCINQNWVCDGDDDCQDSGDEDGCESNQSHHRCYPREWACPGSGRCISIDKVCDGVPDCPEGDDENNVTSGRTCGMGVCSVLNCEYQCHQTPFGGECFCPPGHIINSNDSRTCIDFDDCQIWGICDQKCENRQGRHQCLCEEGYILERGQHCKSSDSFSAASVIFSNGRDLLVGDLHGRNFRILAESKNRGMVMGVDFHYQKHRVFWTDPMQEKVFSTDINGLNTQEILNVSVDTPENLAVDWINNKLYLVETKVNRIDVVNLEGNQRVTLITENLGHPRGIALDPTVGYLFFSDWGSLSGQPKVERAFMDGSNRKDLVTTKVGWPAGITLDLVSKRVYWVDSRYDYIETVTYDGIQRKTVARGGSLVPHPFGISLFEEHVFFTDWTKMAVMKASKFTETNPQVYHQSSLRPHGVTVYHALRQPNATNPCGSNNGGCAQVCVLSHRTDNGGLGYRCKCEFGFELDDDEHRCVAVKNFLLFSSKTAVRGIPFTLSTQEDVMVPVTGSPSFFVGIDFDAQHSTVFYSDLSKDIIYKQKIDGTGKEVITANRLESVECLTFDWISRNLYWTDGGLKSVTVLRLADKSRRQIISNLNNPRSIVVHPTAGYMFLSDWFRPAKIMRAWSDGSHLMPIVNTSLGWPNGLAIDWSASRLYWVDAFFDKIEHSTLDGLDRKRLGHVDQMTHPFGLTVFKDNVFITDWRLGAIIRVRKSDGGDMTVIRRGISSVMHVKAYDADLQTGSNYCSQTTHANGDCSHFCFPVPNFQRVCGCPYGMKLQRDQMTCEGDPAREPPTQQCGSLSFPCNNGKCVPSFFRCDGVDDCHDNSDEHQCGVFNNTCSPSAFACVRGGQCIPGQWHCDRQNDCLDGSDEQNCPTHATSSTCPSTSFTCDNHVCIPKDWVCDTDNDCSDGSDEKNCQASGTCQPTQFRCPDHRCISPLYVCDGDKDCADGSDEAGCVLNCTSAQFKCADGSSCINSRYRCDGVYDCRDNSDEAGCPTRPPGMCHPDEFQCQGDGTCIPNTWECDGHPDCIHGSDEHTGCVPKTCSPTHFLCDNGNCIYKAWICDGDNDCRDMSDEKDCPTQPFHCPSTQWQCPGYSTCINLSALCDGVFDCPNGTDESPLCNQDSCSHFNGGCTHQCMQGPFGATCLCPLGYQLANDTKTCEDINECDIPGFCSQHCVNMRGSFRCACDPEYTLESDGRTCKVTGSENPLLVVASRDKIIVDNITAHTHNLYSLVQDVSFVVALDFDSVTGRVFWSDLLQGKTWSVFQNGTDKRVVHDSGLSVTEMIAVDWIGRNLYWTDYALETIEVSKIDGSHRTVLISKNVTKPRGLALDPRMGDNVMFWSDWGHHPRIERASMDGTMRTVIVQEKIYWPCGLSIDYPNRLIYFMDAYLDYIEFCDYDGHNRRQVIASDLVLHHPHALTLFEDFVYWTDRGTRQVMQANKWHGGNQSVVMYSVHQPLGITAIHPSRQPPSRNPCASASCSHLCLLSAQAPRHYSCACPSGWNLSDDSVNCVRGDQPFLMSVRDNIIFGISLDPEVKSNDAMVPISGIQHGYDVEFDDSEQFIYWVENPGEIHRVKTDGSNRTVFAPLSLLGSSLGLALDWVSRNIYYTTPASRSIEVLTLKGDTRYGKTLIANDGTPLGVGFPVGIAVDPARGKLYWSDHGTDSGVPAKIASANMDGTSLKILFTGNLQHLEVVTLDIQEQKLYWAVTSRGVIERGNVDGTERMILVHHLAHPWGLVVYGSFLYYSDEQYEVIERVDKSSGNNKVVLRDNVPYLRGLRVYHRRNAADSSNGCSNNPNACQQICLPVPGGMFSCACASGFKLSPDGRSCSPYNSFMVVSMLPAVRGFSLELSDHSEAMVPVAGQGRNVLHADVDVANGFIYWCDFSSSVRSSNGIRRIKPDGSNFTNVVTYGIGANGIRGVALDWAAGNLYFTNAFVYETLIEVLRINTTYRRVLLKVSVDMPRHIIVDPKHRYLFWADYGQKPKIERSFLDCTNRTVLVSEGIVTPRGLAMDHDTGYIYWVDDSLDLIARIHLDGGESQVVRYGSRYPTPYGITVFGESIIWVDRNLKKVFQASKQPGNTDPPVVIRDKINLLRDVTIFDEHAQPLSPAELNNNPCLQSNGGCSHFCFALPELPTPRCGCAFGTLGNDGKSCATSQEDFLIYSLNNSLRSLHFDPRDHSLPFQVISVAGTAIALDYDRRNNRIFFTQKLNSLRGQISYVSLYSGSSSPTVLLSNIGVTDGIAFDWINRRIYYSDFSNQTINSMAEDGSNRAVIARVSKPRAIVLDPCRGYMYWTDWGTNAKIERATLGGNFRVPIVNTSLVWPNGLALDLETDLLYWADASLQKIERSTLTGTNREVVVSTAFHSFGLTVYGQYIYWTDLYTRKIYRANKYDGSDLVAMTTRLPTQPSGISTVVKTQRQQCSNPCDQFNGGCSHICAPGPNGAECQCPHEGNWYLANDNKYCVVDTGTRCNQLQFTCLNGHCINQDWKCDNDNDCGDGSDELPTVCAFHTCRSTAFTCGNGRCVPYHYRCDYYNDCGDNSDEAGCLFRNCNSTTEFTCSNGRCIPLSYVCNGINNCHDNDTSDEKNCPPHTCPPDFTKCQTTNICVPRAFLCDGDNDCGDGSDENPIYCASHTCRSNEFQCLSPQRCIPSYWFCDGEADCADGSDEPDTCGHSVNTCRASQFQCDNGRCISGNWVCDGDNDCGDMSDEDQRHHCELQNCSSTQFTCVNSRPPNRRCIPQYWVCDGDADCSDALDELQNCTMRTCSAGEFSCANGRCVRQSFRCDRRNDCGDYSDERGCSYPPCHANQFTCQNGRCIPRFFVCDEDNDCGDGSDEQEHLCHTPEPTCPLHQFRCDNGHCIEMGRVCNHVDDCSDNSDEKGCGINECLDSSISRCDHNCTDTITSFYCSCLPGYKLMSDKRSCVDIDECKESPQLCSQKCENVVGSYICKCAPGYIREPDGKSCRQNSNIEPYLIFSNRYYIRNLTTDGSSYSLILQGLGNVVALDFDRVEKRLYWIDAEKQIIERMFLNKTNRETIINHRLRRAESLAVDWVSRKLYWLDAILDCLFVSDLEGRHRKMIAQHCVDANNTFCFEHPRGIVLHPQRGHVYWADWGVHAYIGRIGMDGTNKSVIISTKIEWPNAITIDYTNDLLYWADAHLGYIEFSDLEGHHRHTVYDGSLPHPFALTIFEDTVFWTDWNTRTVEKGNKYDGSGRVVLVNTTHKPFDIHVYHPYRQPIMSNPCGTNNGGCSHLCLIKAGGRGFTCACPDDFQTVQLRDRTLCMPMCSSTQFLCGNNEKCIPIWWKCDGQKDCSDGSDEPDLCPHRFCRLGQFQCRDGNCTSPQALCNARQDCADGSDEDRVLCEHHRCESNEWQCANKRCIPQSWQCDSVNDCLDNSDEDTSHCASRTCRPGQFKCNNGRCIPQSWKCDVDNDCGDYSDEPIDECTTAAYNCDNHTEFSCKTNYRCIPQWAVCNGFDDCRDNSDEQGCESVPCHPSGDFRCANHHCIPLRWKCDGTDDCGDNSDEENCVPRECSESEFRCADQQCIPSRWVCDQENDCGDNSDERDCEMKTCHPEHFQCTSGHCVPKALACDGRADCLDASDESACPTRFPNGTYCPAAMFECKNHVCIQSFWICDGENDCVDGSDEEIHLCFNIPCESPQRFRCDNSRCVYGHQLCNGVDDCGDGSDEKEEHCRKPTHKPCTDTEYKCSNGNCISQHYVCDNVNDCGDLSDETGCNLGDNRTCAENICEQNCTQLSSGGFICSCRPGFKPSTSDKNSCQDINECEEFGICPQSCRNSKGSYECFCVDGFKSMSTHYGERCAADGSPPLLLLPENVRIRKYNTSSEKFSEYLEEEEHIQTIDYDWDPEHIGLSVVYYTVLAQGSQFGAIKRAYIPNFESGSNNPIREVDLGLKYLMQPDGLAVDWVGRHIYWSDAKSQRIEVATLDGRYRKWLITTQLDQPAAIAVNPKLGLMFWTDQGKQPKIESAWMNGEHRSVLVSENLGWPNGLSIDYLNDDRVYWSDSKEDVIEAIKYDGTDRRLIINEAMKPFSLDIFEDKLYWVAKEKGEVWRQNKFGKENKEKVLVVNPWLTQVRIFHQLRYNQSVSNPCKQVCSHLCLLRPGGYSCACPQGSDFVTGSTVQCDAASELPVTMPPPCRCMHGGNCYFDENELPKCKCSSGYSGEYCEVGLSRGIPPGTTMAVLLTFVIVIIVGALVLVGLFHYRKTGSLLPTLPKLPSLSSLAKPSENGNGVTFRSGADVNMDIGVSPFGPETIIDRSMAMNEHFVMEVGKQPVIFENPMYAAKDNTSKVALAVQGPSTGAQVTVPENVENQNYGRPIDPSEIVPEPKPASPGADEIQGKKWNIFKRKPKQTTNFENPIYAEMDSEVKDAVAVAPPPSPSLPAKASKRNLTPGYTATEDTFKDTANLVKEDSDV
binding between megalin and Hx, sequence (P98158 26-4660): as above
binding between megalin and hemoglobin, sequence (P98158 26-4660): as above

CC1(C)C[C@@H]1C(=O)N/C(=C\CCCCSC[C@H](N)C(=O)O)C(=O)O [cilastatin, (Z)-7-[[(R)-2-Amino-2-carboxyethyl]thio]-2-[[[(S)-2,2-dimethylcyclopropyl]carbonyl]amino]-2-heptenoic acid]
urinary KIM-1 (hemolysis model mice [1]; 24 h pooled urine): lower in the cilastatin (CS)-treated group than the control group
blood urea nitrogen (hemolysis model mice [1]; serum at 24 h): lower in the cilastatin (CS)-treated group than the control group
uptake of α1M and Hx into kidney tissues (mice (C57BL/6); concluded from higher urinary concentrations in the cilastatin-treated group): inhibits
SpC/L ratio (cilastatin-treated group/control group), urinary Albumin (mice (C57BL/6); [7]): 1.10
SpC/L ratio (cilastatin-treated group/control group), urinary Clusterin (mice (C57BL/6); [7]): 0.73
SpC/L ratio (cilastatin-treated group/control group), urinary Hx (mice (C57BL/6); [7]): 2.33
SpC/L ratio (cilastatin-treated group/control group), urinary Transcobalamin-2 (mice (C57BL/6); [7]): 2.33
SpC/L ratio (cilastatin-treated group/control group), urinary Transthyretin (mice (C57BL/6); [7]): 1.00
SpC/L ratio (cilastatin-treated group/control group), urinary Vitamin D-binding protein (mice (C57BL/6); [7]): 0.80
SpC/L ratio (cilastatin-treated group/control group), urinary α1M (mice (C57BL/6); [7]): 3.67
amounts of hemoglobin taken up into kidney tissues (hemolysis model mice [2]): reduced
binding of megalin to Hx-immobilized quartz crystal sensor (drop of quartz crystal signals) [3]: inhibited
binding of megalin to hemoglobin-immobilized quartz crystal sensor (drop of quartz crystal signals) [4]: inhibited
amounts of α1M taken up into kidney tissues (hemolysis model mice [5]): reduced
binding of α1M to megalin-immobilized quartz crystal sensor (drop of quartz crystal signals) [6]: inhibited
